Assays:
Type in all cases: cell-based
[1] = system: Fusarium oxysporum f. sp. lycopersici FOL 3 race 2; test: MIC, antifungal growth inhibition in microtiter plates (PDB); settings: Fo, 22°C, seven days, OD 600 nm, lowest concentration with no growth, given as interval of tested concentrations, three replicates, experiment repeated twice
Protocol: (§1) The following plant pathogenic fungal strains were used: Penicillium expansum EPS26 (Institut de Tecnologia Agroalimentària, Universitat de Girona, Spain) and Fusarium oxysporum f. sp. lycopersici FOL 3 race 2 (ATCC 201829, American Type Culture Collection,Virginia, EEUU). Strains were cultured on potato dextrose agar (PDA) plates (Difco). Conidia from P. expansum and microconidia from F. oxysporum were obtained from 5–7 day-old agar Potato Dextrose (PDA) cultures after growth at 25°C. Inoculum was prepared by scraping spore material from culture surfaces with a cotton swab and resuspending it in distilled water containing 0.5‰ of tween 80. The suspensions were filtered through Miracloth (Merk, Millipore) and the concentration of conidia was determined using a hemacytometer and adjusted to 10^4 conidia mL^-1 for F. oxysporum and to 10^3 conidia mL^-1 for P. expansum.
(§2) Lyophilized peptides were solubilized in sterile Milli-Q water to a final concentration of 1 mM and filter sterilized through a 0.22-μm pore filter. […] For antibacterial activity 20 μL of each dilution were mixed in a microtiter plate well with 20 μL of the corresponding suspension of the bacterial indicator, 160 μL of Trypticase Soy Broth (TSB) (BioMèrieux, France) to a total volume of 200 μL. For antifungal activity 20 μL of each stock solution were mixed in a microtiter plate well with 80 μL of the corresponding suspension of the fungal pathogen and 100 μL of double concentrated Potato Dextrose Broth (PDB) to a total volume of 200 μL containing 0.003% w/v of chloramphenicol to prevent bacterial contamination.
(§3) Three replicates for each combination of strain, compound and concentration were used. Microbial growth was determined by optical density measurement at 600 nm (Bioscreen C, Labsystem, Helsinki, Finland). For antibacterial activity microplates were incubated at 25°C with 20 s shaking before hourly absorbance measurement for 48 h. For antifungal activity microplates were incubated at 22°C with 1 min shaking before absorbance measurement that were done every two hours during seven days. The experiment was repeated twice. The MIC was taken as the lowest compound concentration with no growth at the end of the experiment.

[2] = system: Penicillium expansum EPS26; test: as above; settings: Pe, 22°C, seven days, OD 600 nm, lowest concentration with no growth, given as interval of tested concentrations, three replicates, experiment repeated twice
Protocol: as §1, §2, §3

[3] = system: Erwinia amylovora PMV6076; test: MIC, growth inhibition in microtiter plates (TSB); settings: Ea, 25°C, 48 h, OD 600 nm, lowest concentration with no growth, given as interval of tested concentrations, three replicates, experiment repeated twice
Description: (§4) The following plant pathogenic bacterial strains were used: Erwinia amylovora PMV6076 (Institut National de la Recherche Agronomique, Angers, France), Pseudomonas syringae pv. syringae EPS94 (Institut de Tecnologia Agroalimentària, Universitat de Girona, Spain), Xanthomonas axonopodis pv. vesicatoria 2133–2, Pseudomonas syringae pv. actinidiae Psa3700.1.1, Xanthomonas fragariae Xf349-9A (Instituto Valenciano de Investigaciones Agrarias, Valencia, Spain), and Xanthomonas arboricola pv. pruni CFBP5563 (Collection Française de Bactéries associées aux Plantes, Angers, France). All bacteria except for X. fragariae were stored in Luria Bertani (LB) broth supplemented with glycerol (20%) and maintained at -80°C. For X. fragariae, Medium B [46] was used instead of LB. E. amylovora, X. arboricola pv. pruni, P. syringae pv. syringae and P. syringae pv. actinidiae were scrapped from the agar media after growing for 24 h at 25°C, and X. axonopodis pv. vesicatoria and X. fragariae after growing for 48 h at 25°C. The cell material was suspended in sterile water to obtain a suspension of 10^8 CFU mL^-1.
as §2, §3

[4] = system: Xanthomonas axonopodis pv. vesicatoria 2133–2; test: MIC, growth inhibition in microtiter plates (TSB); settings: Xav, 25°C, 48 h, OD 600 nm, lowest concentration with no growth, given as interval of tested concentrations, three replicates, experiment repeated twice
Description: as §4, §2, §3

[5] = system: Xanthomonas fragariae Xf349-9A; test: MIC, growth inhibition in microtiter plates (TSB); settings: Xf, 25°C, 48 h, OD 600 nm, lowest concentration with no growth, given as interval of tested concentrations, three replicates, experiment repeated twice
Description: as §4, §2, §3

[6] = system: Xanthomonas arboricola pv. pruni CFBP5563; test: MIC, growth inhibition in microtiter plates (TSB); settings: Xap, 25°C, 48 h, OD 600 nm, lowest concentration with no growth, given as interval of tested concentrations, three replicates, experiment repeated twice
Description: as §4, §2, §3

[7] = system: Pseudomonas syringae pv. syringae EPS94; test: MIC, growth inhibition in microtiter plates (TSB); settings: Pss, 25°C, 48 h, OD 600 nm, lowest concentration with no growth, given as interval of tested concentrations, three replicates, experiment repeated twice
Description: as §4, §2, §3

[8] = system: Pseudomonas syringae pv. actinidiae Psa3700.1.1; test: MIC, growth inhibition in microtiter plates (TSB); settings: Psa, 25°C, 48 h, OD 600 nm, lowest concentration with no growth, given as interval of tested concentrations, three replicates, experiment repeated twice
Description: as §4, §2, §3

CCCC(=O)NCCCC[C@H](NC(=O)[C@H](CCCCN)NC(=O)[C@H](CCCCN)NC(C)=O)C(=O)N[C@@H](Cc1ccccc1)C(=O)N[C@@H](CCCCN)C(=O)N[C@@H](CCCCN)C(=O)N[C@H](C(=O)N[C@@H](CC(C)C)C(=O)N[C@@H](CCCCN)C(=O)N[C@@H](Cc1ccc(O)cc1)C(=O)N[C@@H](CC(C)C)C(N)=O)[C@@H](C)CC [BP382, Ac-KKK(COC3H7)FKKILKYL-NH2]
MIC [1]: 0.8 to 1.6 µM | MIC [2]: 3.1 to 6.2 µM | MIC [3]: 6.2 to 12.5 µM | MIC [4]: 6.2 to 12.5 µM | MIC [5]: 1.6 to 3.1 µM | MIC [6]: 6.2 to 12.5 µM | MIC [7]: 6.2 to 12.5 µM | MIC [8]: 6.2 to 12.5 µM

CCCCCC(=O)NCCCC[C@H](NC(C)=O)C(=O)N[C@@H](CCCCN)C(=O)N[C@@H](CC(C)C)C(=O)N[C@@H](Cc1ccccc1)C(=O)N[C@@H](CCCCN)C(=O)N[C@@H](CCCCN)C(=O)N[C@H](C(=O)N[C@@H](CC(C)C)C(=O)N[C@@H](CCCCN)C(=O)N[C@@H](Cc1ccc(O)cc1)C(=O)N[C@@H](CC(C)C)C(N)=O)[C@@H](C)CC [BP368, Ac-K(COC5H11)KLFKKILKYL-NH2]
MIC [1]: 0.8 to 1.6 µM | MIC [2]: 1.6 to 3.1 µM | MIC [3]: 6.2 to 12.5 µM | MIC [4]: 3.1 to 6.2 µM | MIC [5]: 6.2 to 12.5 µM | MIC [6]: 3.1 to 6.2 µM | MIC [7]: 6.2 to 12.5 µM | MIC [8]: 6.2 to 12.5 µM

CCCCCC(=O)NCCCC[C@H](NC(=O)[C@@H](NC(=O)[C@H](CCCCN)NC(=O)[C@H](CCCCN)NC(=O)[C@H](Cc1ccccc1)NC(=O)[C@H](CC(C)C)NC(=O)[C@H](CCCCN)NC(=O)[C@H](CCCCN)NC(C)=O)[C@@H](C)CC)C(=O)N[C@@H](CCCCN)C(=O)N[C@@H](Cc1ccc(O)cc1)C(=O)N[C@@H](CC(C)C)C(N)=O [BP375, Ac-KKLFKKIK(COC5H11)KYL-NH2]
MIC [1]: 0.4 to 0.8 µM | MIC [2]: 3.1 to 6.2 µM | MIC [3]: 3.1 to 6.2 µM | MIC [4]: 6.2 to 12.5 µM | MIC [5]: 3.1 to 6.2 µM | MIC [6]: 3.1 to 6.2 µM | MIC [7]: 3.1 to 6.2 µM | MIC [8]: 3.1 to 6.2 µM

CCCC(=O)NCCCC[C@H](NC(C)=O)C(=O)N[C@@H](CCCCN)C(=O)N[C@@H](CC(C)C)C(=O)N[C@@H](Cc1ccccc1)C(=O)N[C@@H](CCCCN)C(=O)N[C@@H](CCCCN)C(=O)N[C@H](C(=O)N[C@@H](CC(C)C)C(=O)N[C@@H](CCCCN)C(=O)N[C@@H](Cc1ccc(O)cc1)C(=O)N[C@@H](CC(C)C)C(N)=O)[C@@H](C)CC [BP380, Ac-K(COC3H7)KLFKKILKYL-NH2]
MIC [1]: 0.8 to 1.6 µM | MIC [2]: 3.1 to 6.2 µM | MIC [3]: 3.1 to 6.2 µM | MIC [4]: 3.1 to 6.2 µM | MIC [5]: 3.1 to 6.2 µM | MIC [6]: 3.1 to 6.2 µM | MIC [7]: 6.2 to 12.5 µM | MIC [8]: 6.2 to 12.5 µM

CCCC(=O)NCCCC[C@H](NC(=O)[C@H](Cc1ccccc1)NC(=O)[C@H](CC(C)C)NC(=O)[C@H](CCCCN)NC(=O)[C@H](CCCCN)NC(C)=O)C(=O)N[C@@H](CCCCN)C(=O)N[C@H](C(=O)N[C@@H](CC(C)C)C(=O)N[C@@H](CCCCN)C(=O)N[C@@H](Cc1ccc(O)cc1)C(=O)N[C@@H](CC(C)C)C(N)=O)[C@@H](C)CC [BP384, Ac-KKLFK(COC3H7)KILKYL-NH2]
MIC [1]: 1.6 to 3.1 µM | MIC [2]: 12.5 to 25 µM | MIC [3]: 3.1 to 6.2 µM | MIC [4]: 1.6 to 3.1 µM | MIC [5]: 1.6 to 3.1 µM | MIC [6]: 3.1 to 6.2 µM | MIC [7]: 6.2 to 12.5 µM | MIC [8]: 6.2 to 12.5 µM

CCCCCCCCCCCC(=O)NCCCC[C@H](NC(=O)[C@H](CCCCN)NC(=O)[C@H](Cc1ccccc1)NC(=O)[C@H](CC(C)C)NC(=O)[C@H](CCCCN)NC(=O)[C@H](CCCCN)NC(C)=O)C(=O)N[C@H](C(=O)N[C@@H](CC(C)C)C(=O)N[C@@H](CCCCN)C(=O)N[C@@H](Cc1ccc(O)cc1)C(=O)N[C@@H](CC(C)C)C(N)=O)[C@@H](C)CC [BP397, Ac-KKLFKK(COC11H23)ILKYL-NH2]
MIC [1]: 6.2 to 12.5 µM | MIC [2]: 12.5 to 25 µM | MIC [3]: >25 µM | MIC [4]: 6.2 to 12.5 µM | MIC [5]: 1.6 to 3.1 µM | MIC [6]: 3.1 to 6.2 µM | MIC [7]: >25 µM | MIC [8]: >25 µM

CCCCCC(=O)NCCCC[C@H](NC(=O)[C@H](CC(C)C)NC(=O)[C@@H](NC(=O)[C@H](CCCCN)NC(=O)[C@H](CCCCN)NC(=O)[C@H](Cc1ccccc1)NC(=O)[C@H](CC(C)C)NC(=O)[C@H](CCCCN)NC(=O)[C@H](CCCCN)NC(C)=O)[C@@H](C)CC)C(=O)N[C@@H](Cc1ccc(O)cc1)C(=O)N[C@@H](CC(C)C)C(N)=O [BP376, Ac-KKLFKKILK(COC5H11)YL-NH2]
MIC [1]: 0.4 to 0.8 µM | MIC [2]: 3.1 to 6.2 µM | MIC [3]: 6.2 to 12.5 µM | MIC [4]: 6.2 to 12.5 µM | MIC [5]: 3.1 to 6.2 µM | MIC [6]: 6.2 to 12.5 µM | MIC [7]: 12.5 to 25 µM | MIC [8]: 3.1 to 6.2 µM

CCCC(=O)NCCCC[C@H](NC(=O)[C@H](CC(C)C)NC(=O)[C@H](CCCCN)NC(=O)[C@H](CCCCN)NC(C)=O)C(=O)N[C@@H](CCCCN)C(=O)N[C@@H](CCCCN)C(=O)N[C@H](C(=O)N[C@@H](CC(C)C)C(=O)N[C@@H](CCCCN)C(=O)N[C@@H](Cc1ccc(O)cc1)C(=O)N[C@@H](CC(C)C)C(N)=O)[C@@H](C)CC [BP383, Ac-KKLK(COC3H7)KKILKYL-NH2]
MIC [1]: 0.8 to 1.6 µM | MIC [2]: 6.2 to 12.5 µM | MIC [3]: 6.2 to 12.5 µM | MIC [4]: 3.1 to 6.2 µM | MIC [5]: 3.1 to 6.2 µM | MIC [6]: 6.2 to 12.5 µM | MIC [7]: 6.2 to 12.5 µM | MIC [8]: 6.2 to 12.5 µM

CCCCCC(=O)NCCCC[C@H](NC(=O)[C@H](CCCCN)NC(=O)[C@H](CC(C)C)NC(=O)[C@@H](NC(=O)[C@H](CCCCN)NC(=O)[C@H](CCCCN)NC(=O)[C@H](Cc1ccccc1)NC(=O)[C@H](CC(C)C)NC(=O)[C@H](CCCCN)NC(=O)[C@H](CCCCN)NC(C)=O)[C@@H](C)CC)C(=O)N[C@@H](CC(C)C)C(N)=O [BP377, Ac-KKLFKKILKK(COC5H11)L-NH2]
MIC [1]: 0.8 to 1.6 µM | MIC [2]: 3.1 to 6.2 µM | MIC [3]: 3.1 to 6.2 µM | MIC [4]: 6.2 to 12.5 µM | MIC [5]: 3.1 to 6.2 µM | MIC [6]: 3.1 to 6.2 µM | MIC [7]: 3.1 to 6.2 µM | MIC [8]: 3.1 to 6.2 µM

CCCCCC(=O)N[C@@H](CCCCN)C(=O)N[C@@H](CCCCN)C(=O)N[C@@H](CC(C)C)C(=O)N[C@@H](Cc1ccccc1)C(=O)N[C@@H](CCCCN)C(=O)N[C@@H](CCCCN)C(=O)N[C@H](C(=O)N[C@@H](CC(C)C)C(=O)N[C@@H](CCCCN)C(=O)N[C@@H](Cc1ccc(O)cc1)C(=O)N[C@@H](CC(C)C)C(N)=O)[C@@H](C)CC [BP367, C5H11CO-KKLFKKILKYL-NH2]
MIC [1]: 1.6 to 3.1 µM | MIC [2]: 12.5 to 25 µM | MIC [3]: 3.1 to 6.2 µM | MIC [4]: 3.1 to 6.2 µM | MIC [5]: 3.1 to 6.2 µM | MIC [6]: 3.1 to 6.2 µM | MIC [7]: 3.1 to 6.2 µM | MIC [8]: 3.1 to 6.2 µM
